Our source for the TGI values is PubChem BioAssay (NCI).

Test systems include SNB-75 CNS; SW-620 colon; OVCAR-4 ovarian; NCI-H522 lung; HS 578T breast; SF-268 CNS; SR leukemia; MDA-N; UACC-257 melanoma; 786-0 renal; CAKI-1 renal; NCI-H226 lung; RXF 393 renal; SN12C renal; HCT-15 colon; UO-31 renal; OVCAR-8 ovarian; PC-3 prostate; HOP-92 NSCLC.
Test in all cases: NCI tumour cell line growth inhibition, 48 h

Molecules are shown by their SMILES.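 Cultured in 96-well plates, cells were exposed to test compound for 48 hours across five concentrations. TGI: total growth inhibition.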

Take `COP(=O)(C(/C=C/c1ccccc1)OC(C)=O)[C@@H]1CCCC[C@H]1N(CC(C)(C)C)C(C)=O` (stereo partly drawn): the TGI was 22.7 µM with SNB-75 CNS; 41.2 µM in the test with SW-620 colon; 33.1 µM in the test with OVCAR-4 ovarian; 27.9 µM in the test with NCI-H522 lung; 31.1 µM in the test on HS 578T breast; 40.8 µM in the test on SF-268 CNS. The TGI is 36.2 µM in the test with SR leukemia; 36.7 µM with MDA-N; 31 µM with UACC-257 melanoma; 35.8 µM with 786-0 renal; 92.6 µM with CAKI-1 renal; 27 µM in the test on NCI-H226 lung. Further, the TGI in the test with RXF 393 renal was 22.1 µM; in the test with SN12C renal it was 30.2 µM; with HCT-15 colon it was 61.6 µM; in the test with UO-31 renal, 27.9 µM; with OVCAR-8 ovarian, 35.6 µM; with PC-3 prostate, 37.4 µM.

On to `CC1C(=O)C23OC[C@@]1(C)C1(O)CC[C@@H](C)[C@]21CC3=O` (stereo partly drawn), for which the TGI in the test on SNB-75 CNS, in the test with SW-620 colon, in the test on OVCAR-4 ovarian, in the test on NCI-H522 lung, in the test with HS 578T breast and in the test with SF-268 CNS was over 100 µM throughout. Also, the TGI in the test with SR leukemia, in the test on MDA-N, in the test on UACC-257 melanoma, in the test on 786-0 renal, in the test with NCI-H226 lung and in the test on RXF 393 renal was over 100 µM each time. In addition, the TGI in the test with SN12C renal, in the test with HCT-15 colon, with UO-31 renal, in the test with OVCAR-8 ovarian and in the test with PC-3 prostate was over 100 µM throughout.

`Cc1cc2c(=O)[nH]nc(N)c2c(N)n1`: the TGI in the test on SW-620 colon, with OVCAR-4 ovarian, in the test on NCI-H522 lung, in the test with HS 578T breast, in the test with SF-268 CNS and in the test with SR leukemia was over 100 µM throughout. The TGI with MDA-N, in the test with UACC-257 melanoma, with 786-0 renal, in the test on CAKI-1 renal, in the test with NCI-H226 lung and with RXF 393 renal was over 100 µM each time. Moreover, the TGI in the test on SN12C renal, in the test with HOP-92 NSCLC, with HCT-15 colon, in the test with UO-31 renal, with OVCAR-8 ovarian and with PC-3 prostate was over 100 µM in each case.

Take `O=C1CSC(/C=C/c2ccccc2)N1c1ccc(-n2c(-c3ccccc3)nc3ccccc3c2=O)cc1` (stereo not drawn): the TGI was 90 µM in the test on SNB-75 CNS; 86.2 µM in the test with OVCAR-4 ovarian; over 100 µM in the test on NCI-H522 lung; over 100 µM in the test with HS 578T breast; over 100 µM in the test on SF-268 CNS; over 100 µM with SR leukemia. The TGI with MDA-N, with UACC-257 melanoma, in the test with 786-0 renal, with CAKI-1 renal, in the test with NCI-H226 lung and in the test on SN12C renal was over 100 µM each time. Further, the TGI with HOP-92 NSCLC, with HCT-15 colon, with UO-31 renal, in the test on OVCAR-8 ovarian and with PC-3 prostate was over 100 µM each time.

For the compound `OC1(c2ccc3ccccc3c2)c2ccc3ccccc3c2C2=NCCN21` (stereo not drawn), the TGI was 46.9 µM in the test on SNB-75 CNS; over 100 µM with SW-620 colon; 85.8 µM with OVCAR-4 ovarian; 53 µM in the test on HS 578T breast; over 100 µM in the test with SF-268 CNS; over 100 µM in the test with SR leukemia. For the same compound, the TGI is over 100 µM in the test on MDA-N; over 100 µM with UACC-257 melanoma; 69.3 µM with 786-0 renal; over 100 µM in the test with CAKI-1 renal; 98.5 µM with RXF 393 renal; over 100 µM in the test with SN12C renal. Besides, the TGI in the test on HOP-92 NSCLC was over 100 µM; in the test on HCT-15 colon, over 100 µM; in the test with UO-31 renal, over 100 µM; with OVCAR-8 ovarian it was 82.2 µM; in the test on PC-3 prostate it was over 100 µM.

`CCOc1ccc2c(c1)NC(=O)C(C1OC(c3ccccc3)=CC1=O)S2` (stereo not drawn): the TGI in the test with SW-620 colon came to 88.8 µM; in the test with NCI-H522 lung, 25.7 µM; with HS 578T breast, 86 µM; in the test on SF-268 CNS, 63.1 µM; in the test on SR leukemia, 46.1 µM; with MDA-N, 77.4 µM. For the same compound, the TGI in the test on UACC-257 melanoma is over 100 µM; in the test with 786-0 renal, 80.5 µM; with CAKI-1 renal, over 100 µM; in the test on NCI-H226 lung it was 67.5 µM; with RXF 393 renal it was 42.8 µM; in the test on SN12C renal it was 77.9 µM. The TGI turned out to be 69.2 µM with HCT-15 colon, 90.3 µM in the test with UO-31 renal, 55.7 µM with OVCAR-8 ovarian and 51.4 µM with PC-3 prostate.

Consider `CC1(C)S[C@@H]2[C@H](NC(=O)/C=C/c3ccccc3)C(=O)N2[C@H]1C(=O)O`, for which the TGI in the test with SNB-75 CNS, in the test with SW-620 colon, in the test on OVCAR-4 ovarian, with NCI-H522 lung, with HS 578T breast and in the test on SF-268 CNS was over 100 µM in each case. Moreover, the TGI in the test on SR leukemia, with MDA-N, with UACC-257 melanoma, in the test with 786-0 renal, in the test on CAKI-1 renal and in the test with NCI-H226 lung was over 100 µM in each case. The TGI in the test on SN12C renal, in the test on HOP-92 NSCLC, in the test with HCT-15 colon, in the test with UO-31 renal, with OVCAR-8 ovarian and in the test with PC-3 prostate was over 100 µM throughout.

Take `N#CC(c1ccccc1)(c1ccccc1)[C@@H](c1ccccc1)[C@H](Cc1ccccc1)NS(=O)(=O)c1ccccc1`: the TGI with SNB-75 CNS, in the test with SW-620 colon, in the test on OVCAR-4 ovarian, in the test with NCI-H522 lung, with HS 578T breast and in the test with SF-268 CNS was over 100 µM in each case. For the same compound, the TGI with SR leukemia, in the test with MDA-N, in the test on UACC-257 melanoma, in the test with 786-0 renal, in the test with CAKI-1 renal and in the test on RXF 393 renal was over 100 µM throughout. Moreover, the TGI in the test on SN12C renal, with HCT-15 colon, in the test on UO-31 renal, with OVCAR-8 ovarian and with PC-3 prostate was over 100 µM each time.
